Assay [1] in a line: Non-specific binding test of CAII on the sensor surface without EDC/NHS activation. The following applies: CAII flowed over surface 101 without prior activation with EDC/NHS. From the text:
Present on the activated dielectric surface 110 is a chelated metal ion linking layer 104. […] (RU stands for resonance unit and is directly proportional to the concentration of biomolecules on a surface. 1 RU is ca. 1 pg/mm^2.)
To test for non-specific binding, a ligand (CAII) was flowed over surface 101 through chamber 136 in the same manner as above but without any prior activation with EDC/NHS.

Assay [2] has as its target carbonic anhydrase II (CAII) (Homo sapiens, UniProt P00918). Kind of assay: SPR biomolecular interaction assay of CBS with immobilized CAII. It counts as binding. As to conditions: CBS 40 μM to 80 nM in phosphate-buffered saline, run over CAII surface. From the text: During use, light source 142 directs a light beam 150 toward prism 120 by way of suitable optics. Light beam 150 passes into and through light-transmissive support 105 and reflects off metal layer 107. Reflected light 152 is received by optical detector 144. Optical detector 144 passes a corresponding signal to the detection circuitry 146. The ligand 102 is contacted with sample and may bind to analytes in the sample. Binding of analyte and ligand 102 causes a change in a property of the reflected light 152 that can be detected by optical detection system 130. Upon detection of the change in a property of the reflected light 152, the detection system may produce a sample-responsive signal. The resultant sample responsive signal may then be employed to assess the presence of analyte in the sample. In certain embodiments, the sample-responsive signal is in the form of a “sensorgram.” A sensorgram is a plot of response (measured in “resonance units” or “RU”) as a function of time. An increase of RU corresponds to an increase of mass on the sensor surface. […]
The ligand, (CAII) is immobilized on the surface layer as stated above in “ligand attachment”. […] Binding curves are produced of the analyte interaction with the enzyme and binding rates are calculated.

As for carbonic anhydrase II [CAII], the non-specific binding entry in assay [1] is “ca. 10 RU”.

On to carboxybenzenesulfonamide [CBS], for which, in assay [2], the “Response units (binding to immobilized CAII)” value is “proportional to the concentration of the analyte and are cleanly seen above the baseline”.

Values taken from patent US20090084166A1, “Sensors comprising a chelated metal ion linker layer” (priority 2007, published 2009).
